Assay results from USRE48253E1, “Methotrexate adjuvants to reduce toxicity and methods for using the same” (Tosk, Inc., priority 2008, dated 2020).

Experiments:
C57BL/6 mice = assay: Mouse Study I: protection from MTX-induced weight loss (LPS/MTX model); assay type: in vivo; settings: 10 or 30 mg/kg ip 3 hr before and after MTX; LPS+MTX treated mice
Experimental: C57BL/6 mice (10 animals/treatment group) were dosed on Day 1 with LPS (5 μg, i.p.). On Day 2, the animals were treated with 200 mg/kg MTX+10 or 30 mg/kg TK-112690 3 hr before and 3 hr after the MTX treatment. On Day 3, the animals were dosed MTX 100 mg/kg+10 or 30 mg/kg TK±3 hr. On day 8, the Day 8-Day 1 weight was determined and results subject to ANOVA. Group 1=saline alone, Group 2=MTX alone, Group 3=LPS alone, Group 4=MTX+LPS, Group 5=10 mg/kg TK-112690+MTX+LPS or Group 6=30 mg/kg TK-112690+MTX+LPS.
This mouse model is modified from a published procedure (de Koning et al., Int Immunol 18: 941 (2006)). Mice are treated on day one with a single intraperitoneal (ip) dose of lipopolysaccharide (LPS), followed by two consecutive days with 200 and 100 mg/kg ip methotrexate, respectively. Controls include saline alone for days 1, 2, and 3, saline on day 1 plus MTX on days 2 and 3 and LPS on day one with saline injection on days 2 and 3. Experimental groups are given LPS on day one and 10 or 30 mg/kg, TK-112690, a representative 2,2′-anhydropyrimidine test article, ip 3 hours before, and 3 hours after, methotrexate injection on days 2 and 3. Animal weights are measured every day after the first injection with experiment termination five days after the second methotrexate injection (day 8). Weight loss is representative of MTX-induced toxicity, and one aspect of MTX-induced mucositis. […]

[1] = Mouse Study VI: plasma uridine and TK-112690 after TK-112690 treatment; assay type: in vivo, CD-1 mouse; settings: 0, 15, 30, 60 and 120 mg/kg ip
Experimental: In this study, CD-1 female mice were injected ip with 120 mg/kg TK-112690 and plasma from the animals analyzed by HPLC using UV detection for TK-112690 and uridine. Concentrations of uridine and TK-112690 in plasma samples collected 0.08, 0.50, 1, 2, 4 or 12 hours post TK-112690 injection were determined by HPLC using UV detection. […] An increase in plasma uridine was noted almost immediately following administration of TK-112690. At 0.5 hour post TK-112690 dose, a 100 μg/mL plasma concentration TK-112690 is associated with a plasma uridine concentration of approximately 2 μg/mL of uridine (baseline uridine concentration approximately 0.5 μg/mL). […]
Plasma uridine concentration was determined by HPLC using UV detectionafter animals were treated with TK-112690 as follows. […] CD-1 female mice were injected ip with a range of TK-112690 doses (0, 15, 30, 60 and 120 mg/kg) and plasma from the animals analyzed for TK-112690 uridine concentrations expected to be elevated through UPase inhibition by TK-112690. Plasma uridine concentrations were determined from plasma samples collected 0.08, 0.50, 1, 2, 4 or 12 hours post TK-112690 injection. […]
The micromolar concentration of plasma uridine was determined by linear equation (y=mx+b) generated from uridine and 5-FU calibration curve. The y value is calculated by taking ratio of peak heights (mm) of uridine and 5-FU. […]

Cc1cn2c(nc1=O)O[C@H]1[C@H](O)[C@@H](CO)O[C@H]12 [TK-112690, 2,2′-anhydro-5-methyluridine]
protection from MTX-induced weight loss (Day 8-Day 1 weight) (C57BL/6 mice): highly significant
plasma concentrations of TK-112690 vs dose [1]: increased with increasing doses
